From patent US9296741B2, “Bromodomain inhibitors” (priority 2012, dated 2016)

Experiments:
[1] = target: human BRD4 first bromodomain (BDI_K57-E168) (Homo sapiens (Human), UniProt O60885); experiment: TR-FRET bromodomain binding assay, BRD4 first bromodomain
[2] = target: human BRD4 second bromodomain (BDII_E352-M457) (Homo sapiens (Human), UniProt O60885); experiment: TR-FRET bromodomain binding assay, BRD4 second bromodomain
[3] = tested on: breast cancer cell line MX-1; experiment: MX-1 cell line proliferation assay; assay type: cell-based, human; conditions: Homo sapiens, MX1, 72 h; MX-1 cells, 3-day proliferation, Cell Titer Glo; read-out: Cellular proliferation: EC50
[4] = Human liver microsome stability assay; assay type: in vitro ADME; conditions: both sexes, human, microsomes, pH 7.4
[5] = Rat liver microsome stability assay; assay type: in vitro ADME; conditions: rat liver microsomes (male Sprague-Dawley), 0.5 μM test compound, 0.25 mg/mL microsomal protein, pH 7.4, 37° C.; read-out: Stability in rat liver microsomes (t1/2 in minutes)
[6] = Mouse liver microsome stability assay; assay type: in vitro ADME; conditions: male, CD1, mouse, microsomes, pH 7.4
[7] = tested on: LPS induced IL-6 production; experiment: LPS (lipopolysaccharide) induced IL-6 production mouse assay; assay type: in vivo; conditions: 1 h before LPS, serum IL-6 2 h after LPS; for inhibition in vivo at 3 mg/kg: Mus musculus, read-out: Inhibition of LPS induced IL-6 production in Mice, % inhibition at 3 mg/kg, 3 mg/kg oral

Compound	Ki [1]	Ki [2]	EC50 [3]	half-life at 0.5 μM [4]	half-life at 0.5 μM [5]	half-life at 0.5 μM [6]	Inhibition of LPS induced IL-6 production in Mice, % inhibition at 50 mg/kg ([7]; 50 mg/kg oral)	inhibition in vivo at 3 mg/kg [7]
Cn1cc(-c2cc(NS(=O)(=O)CC(F)(F)F)ccc2Oc2ccccc2)c2cc[nH]c2c1=O [Example 5, 2,2,2-trifluoro-N-[3-(6-methyl-7-oxo-6,7-dihydro-1H-pyrrolo[2,3-c]pyridin-4-yl)-4-phenoxyphenyl]ethanesulfonamide]	15 nM	6.4 nM	31 nM	100 min	6 min	24 min	74% at 50 mg/kg	
Cn1cc(-c2cc(NS(C)(=O)=O)ccc2Oc2cccnc2)c2cc[nH]c2c1=O [Example 11, N-[3-(6-methyl-7-oxo-6,7-dihydro-1H-pyrrolo[2,3-c]pyridin-4-yl)-4-(pyridin-3-yloxy)phenyl]methanesulfonamide]	1.8 nM	2.4 nM	34.2 nM	48 min	19 min	27 min		34%
Cn1cc(-c2cc(NS(C)(=O)=O)cc(F)c2Oc2ccccc2)c2cc[nH]c2c1=O [Example 24, N-[3-fluoro-5-(6-methyl-7-oxo-6,7-dihydro-1H-pyrrolo[2,3-c]pyridin-4-yl)-4-phenoxyphenyl]methanesulfonamide]			12.6 nM	29 min	5 min	55 min		58%
Cn1cc(-c2cc(NS(C)(=O)=O)ccc2Oc2ccc(F)cc2)c2cc[nH]c2c1=O [Example 26, N-[4-(4-fluorophenoxy)-3-(6-methyl-7-oxo-6,7-dihydro-1H-pyrrolo[2,3-c]pyridin-4-yl)phenyl]methanesulfonamide]	2.1 nM	3.3 nM	17.1 nM					60%
Cn1cc(-c2cc(NS(C)(=O)=O)cc(Cl)c2Oc2ccccc2)c2cc[nH]c2c1=O [Example 28, N-[3-chloro-5-(6-methyl-7-oxo-6,7-dihydro-1H-pyrrolo[2,3-c]pyridin-4-yl)-4-phenoxyphenyl]methanesulfonamide]			23.9 nM	21 min	9 min			52%
Cn1cc(-c2cc(S(N)(=O)=O)cnc2OC2CCOC2)c2cc[nH]c2c1=O (centres unmarked) [Example 86, 5-(6-methyl-7-oxo-6,7-dihydro-1H-pyrrolo[2,3-c]pyridin-4-yl)-6-(tetrahydrofuran-3-yloxy)pyridine-3-sulfonamide]			182 nM	> 120 min	> 120 min	43 min		55%
CNS(=O)(=O)c1cnc(OC2CCOC2)c(-c2cn(C)c(=O)c3[nH]ccc23)c1 (centres unmarked) [Example 87, N-methyl-5-(6-methyl-7-oxo-6,7-dihydro-1H-pyrrolo[2,3-c]pyridin-4-yl)-6-(tetrahydrofuran-3-yloxy)pyridine-3-sulfonamide]			53.4 nM	> 120 min	23 min			57%
Cn1cc(-c2cc(S(C)(=O)=O)ccc2Oc2ccccc2F)c2cc[nH]c2c1=O [Example 149, 4-[2-(2-fluorophenoxy)-5-(methylsulfonyl)phenyl]-6-methyl-1,6-dihydro-7H-pyrrolo[2,3-c]pyridin-7-one]	11.5 nM	3 nM	29.7 nM					69%
Cn1cc(-c2cc(S(C)(=O)=O)ccc2Oc2cccc(F)c2)c2cc[nH]c2c1=O [Example 150, 4-[2-(3-fluorophenoxy)-5-(methylsulfonyl)phenyl]-6-methyl-1,6-dihydro-7H-pyrrolo[2,3-c]pyridin-7-one]	9.7 nM	4.2 nM	66.5 nM					54%
Cn1cc(-c2cc(S(C)(=O)=O)ccc2Oc2ccc(F)cc2)c2cc[nH]c2c1=O [Example 151, 4-[2-(4-fluorophenoxy)-5-(methylsulfonyl)phenyl]-6-methyl-1,6-dihydro-7H-pyrrolo[2,3-c]pyridin-7-one]	10.7 nM	8.1 nM	54.9 nM					66%
CCS(=O)(=O)Nc1ccc(Oc2ccc(F)cc2F)c(-c2nn(C)c(=O)c3[nH]ccc23)c1 [Example 160, N-[4-(2,4-difluorophenoxy)-3-(6-methyl-7-oxo-6,7-dihydro-1H-pyrrolo[2,3-d]pyridazin-4-yl)phenyl]ethanesulfonamide]			119 nM	67 min	119 min	21 min		51%
Cn1cc(-c2cc(S(C)(=O)=O)ccc2NC2CCOC2)c2cc[nH]c2c1=O (centres unmarked) [Example 167, 6-methyl-4-[5-(methylsulfonyl)-2-(tetrahydrofuran-3-ylamino)phenyl]-1,6-dihydro-7H-pyrrolo[2,3-c]pyridin-7-one]	6.5 nM	12.2 nM	43 nM					64%
CCS(=O)(=O)c1ccc(OCC2CC2)c(-c2cn(C)c(=O)c3[nH]ccc23)c1 [Example 198, 4-[2-(cyclopropylmethoxy)-5-(ethylsulfonyl)phenyl]-6-methyl-1,6-dihydro-7H-pyrrolo[2,3-c]pyridin-7-one]	1.3 nM	1.6 nM	9.3 nM			55 min		66%
CCS(=O)(=O)c1ccc(O[C@H]2CC[C@@H](O)CC2)c(-c2cn(C)c(=O)c3[nH]ccc23)c1 [Example 202, 4-{5-(ethylsulfonyl)-2-[(cis-4-hydroxycyclohexyl)oxy]phenyl}-6-methyl-1,6-dihydro-7H-pyrrolo[2,3-c]pyridin-7-one]	1.7 nM	1.4 nM	22.8 nM		> 120 min			68%
CCS(=O)(=O)c1ccc(O[C@H]2CC[C@H](O)CC2)c(-c2cn(C)c(=O)c3[nH]ccc23)c1 [Example 203, 4-{5-(ethylsulfonyl)-2-[(trans-4-hydroxycyclohexyl)oxy]phenyl}-6-methyl-1,6-dihydro-7H-pyrrolo[2,3-c]pyridine-7-one]	0.69 nM	0.75 nM	4.7 nM		> 120 min			78%
CCS(=O)(=O)c1ccc(OCC2CC2)c(-c2nn(C)c(=O)c3[nH]ccc23)c1 [Example 204, 4-[2-(cyclopropylmethoxy)-5-(ethylsulfonyl)phenyl]-6-methyl-1,6-dihydro-7H-pyrrolo[2,3-d]pyridazin-7-one]			82.9 nM	> 120 min	81 min	68 min		35%
CNS(=O)(=O)c1cnc(NCC2CC2)c(-c2cn(C)c(=O)c3[nH]ccc23)c1 [Example 210, 6-[(cyclopropylmethyl)amino]-N-methyl-5-(6-methyl-7-oxo-6,7-dihydro-1H-pyrrolo[2,3-c]pyridin-4-yl)pyridine-3-sulfonamide]			36.7 nM	104 min	> 120 min	> 120 min		78%
CNS(=O)(=O)c1cnc(Oc2ccc(F)cc2F)c(-c2cn(C)c(=O)c3[nH]ccc23)c1 [Example 246, 6-(2,4-difluorophenoxy)-N-methyl-5-(6-methyl-7-oxo-6,7-dihydro-1H-pyrrolo[2,3-c]pyridin-4-yl)pyridine-3-sulfonamide]			97.5 nM	52 min	53 min	56 min		71%
Cn1cc(-c2cc(S(N)(=O)=O)ccc2OCC2CC2)c2cc[nH]c2c1=O [Example 249, 4-(cyclopropylmethoxy)-3-(6-methyl-7-oxo-6,7-dihydro-1H-pyrrolo[2,3-c]pyridin-4-yl)benzenesulfonamide]			14.4 nM	> 120 min	> 120 min	> 120 min		59%
Cn1cc(-c2cc(CS(C)(=O)=O)ccc2Oc2ccc(F)cc2F)c2cc[nH]c2c1=O [Example 287, 4-{2-(2,4-difluorophenoxy)-5-[(methylsulfonyl)methyl]phenyl}-6-methyl-1,6-dihydro-7H-pyrrolo[2,3-c]pyridin-7-one]			19.5 nM	> 120 min	116 min	29 min		73%
Cn1cc(-c2cc(CS(C)(=O)=O)ccc2NCC2CC2)c2cc[nH]c2c1=O [Example 328, 4-{2-[(cyclopropylmethyl)amino]-5-[(methylsulfonyl)methyl]phenyl}-6-methyl-1,6-dihydro-7H-pyrrolo[2,3-c]pyridin-7-one]			42.6 nM	> 120 min	36 min	> 120 min		40%
Cn1cc(-c2cc(S(C)(=O)=O)ccc2NCC2CC2)c2cc[nH]c2c1=O [Example 329, 4-{2-[(cyclopropylmethyl)amino]-5-(methylsulfonyl)phenyl}-6-methyl-1,6-dihydro-7H-pyrrolo[2,3-c]pyridin-7-one]			17.1 nM	> 120 min	> 120 min	> 120 min		63%
